The values below come from US20260206764A1, “AN HERBICIDAL COMBINATION, COMPOSITION AND METHOD OF CONTROLLING WEEDS USING THE SAME” (priority 2023, published 2026).

Test [1] deals with Viola arvensis, Bromus spp., Lolium spp., Agropyron repens and Urtica urens. Particulars: reported by Hoechst et al., 1991; cited from earlier work.
Test [2] has as its system Brachiaria decumbens. As to the kind of experiment: Greenhouse post-emergence herbicidal efficacy, % weed control. In kind it is in vivo. An excerpt:
(§1) This effectiveness of all treatments can be evaluated according to Colby's equation. In the Colby's equation given below, E is the expected efficacy of combination of L-glufosinate, salts, esters, or combinations thereof, and an herbicide of the phenoxypropionic herbicide class, • X is the observed efficacy of L-glufosinate, salts, esters, or combinations thereof and • Y is the observed efficacy of the herbicide of the phenoxypropionic herbicide class.
(§2) Observed efficacy values i.e. X and Y are % weed control for L-glufosinate, salts, esters, or combinations thereof and an herbicide of the phenoxypropionic herbicide class. If observed efficacy of combination of L-glufosinate, salts, esters, or combinations thereof and the herbicide of the phenoxypropionic herbicide class is greater than its expected efficacy, then combination is determined to be synergistic. If observed efficacy is equal to or less than expected efficacy, then combination is determined to be non-synergistic.
(§3) Methodology: Greenhouse trials were carried out to evaluate the efficacy of the combination of L-glufosinate ammonium and phenoxypropionic herbicides—haloxyfop, quizalofop-ethyl, quizalofop-P-tefuryl—on weeds Eleusine indica, Brachiaria decumbens, Spermacoce latifolia and Glycine max.
(§4) The soil used was sandy clay loam-Sand: 68.0%; Silt: 8.0%; Clay: 24.0%.
(§5) All treatments were in 4 replications per treatment with a spray volume of […].
(§6) The expected efficacy of a combination of L-glufosinate and the other herbicides was calculated using the well-established Colby method. Any difference between the observed and “expected” efficacy could be attributed to synergy between the two compounds. (Colby, S. R., Weeds, 1967 (15), p. 20-22).
Experiment was conducted to assess the efficacy herbicidal combination comprising L-glufosinate ammonium (glufosinate-p-ammonium) and haloxyfop to control the weed, Brachiaria decumbens.
The percentage efficacy was calculated after 7, 14 days of application (DAA). The target weed was Brachiaria decumbens, and the concentration of the herbicide and the results are recorded in the table 1 below:
Experiment was conducted to assess the efficacy herbicidal combination comprising L-glufosinate ammonium (glufosinate-p-ammonium) and quizalofop-ethyl to control the weed, Brachiaria decumbens.
The percentage efficacy was calculated after 28 and 35 days of application (DAA). The target weed was Brachiaria decumbens, and the concentration of the herbicide and the results are recorded in the table 2 below:
Experiment was conducted to assess the efficacy herbicidal combination comprising L-glufosinate ammonium (glufosinate-p-ammonium) and quizalofop-P-tefuryl to control the weed, Brachiaria decumbens.
The percentage efficacy was calculated after 14, 21, 28, 35 days of application (DAA). The target weed was Brachiaria decumbens, and the concentration of the herbicide and the results are recorded in the table 3 below: […]

The test system of test [3] is Eleusine indica. The test is described as above. In kind it is in vivo. The note with it: for Control %: Table 6, L-glufosinate ammonium 150, quizalofop-p-tefuryl 25 g/ha.
Text: as §1, §2, §3, §4, §5, §6
Experiment was conducted to assess the efficacy herbicidal combination comprising L-glufosinate ammonium (glufosinate-p-ammonium) and haloxyfop to control the weed, Eleusine indica.
The percentage efficacy was calculated after 7 days of application (DAA). The target weed was Eleusine indica, and the concentration of the herbicide and the results are recorded in the table 4 below:
Experiment was conducted to assess the efficacy herbicidal combination comprising L-glufosinate ammonium (glufosinate-p-ammonium) and quizalofop-ethyl to control the weed, Eleusine indica.
The percentage efficacy was calculated after 21 days of application (DAA). The target weed was Eleusine indica, and the concentration of the herbicide and the results are recorded in the table 5 below:
Experiment was conducted to assess the efficacy herbicidal combination comprising L-glufosinate ammonium (glufosinate-p-ammonium) and quizalofop-P-tefuryl to control the weed, Eleusine indica.
The percentage efficacy was calculated after 21, 28, 35 days of application (DAA). The target weed was Eleusine indica, and the concentration of the herbicide and the results are recorded in the table 6 below: […]

The test system of test [4] is Spermacoce latifolia. Described as above. In kind it is in vivo. The note with it: Table 7, L-glufosinate ammonium 150, haloxyfop 50 g/ha.
Text: as §1, §2, §3, §4, §5, §6
Experiment was conducted to assess the efficacy herbicidal combination comprising L-glufosinate ammonium (glufosinate-p-ammonium) and haloxyfop to control the weed, Spermacoce latifolia.
The percentage efficacy was calculated after 7, 14, 21, 28, 35 days of application (DAA). The target weed was Spermacoce latifolia, and the concentration of the herbicide and the results are recorded in the table 7 below: […]

Test [5] relates to Glycine max. The description is as above. The format is in vivo. Particulars: for % control: Table 8, L-glufosinate ammonium 150, haloxyfop 50 g ai/ha.
Text: as §1, §2, §3, §4, §5, §6
Experiment was conducted to assess the efficacy herbicidal combination comprising L-glufosinate ammonium (glufosinate-p-ammonium) and haloxyfop to control the weed, Glycine max.
The percentage efficacy was calculated after 3, 7, 14, 21, 28, 35 days of application (DAA). The target weed was Glycine max, and the concentration of the herbicide and the results are recorded in the table 8 below:
Experiments were conducted to assess the efficacy of herbicidal combination comprising L-glufosinate ammonium (glufosinate-p-ammonium) and quizalofop-ethyl to control the weedy Glycine max.
The percentage efficacy was calculated after 3, 28 and 35 days of applications (DAA). The target weed was Glycine max, and the concentration of the herbicide and the results are recorded in the table 9 below:
Experiments were conducted to assess the efficacy of herbicidal combination comprising L-glufosinate ammonium (glufosinate-p-ammonium) and quizalofop-p-tefuryl to control the weedy Glycine max.
The percentage efficacy was calculated after 3, 28 and 35 days of applications (DAA). The target weed was Glycine max, and the concentration of the herbicide and the results are recorded in the table 10 below.

Setting [6] is: Table 1, 7 DAA, L-glufosinate ammonium 150, haloxyfop 50 g a.i./ha.
Setting [7] is: Table 1, 14 DAA, L-glufosinate ammonium 150, haloxyfop 50 g a.i./ha.
The mark [8] stands for this setting: Table 2, 28 DAA, L-glufosinate ammonium 150, quizalofop-ethyl 25 g a.i./ha.
[9] abbreviates: Table 2, 35 DAA, L-glufosinate ammonium 150, quizalofop-ethyl 25 g a.i./ha.
Setting [10] is: Table 3, 14 DAA, L-glufosinate ammonium 150, quizalofop-p-tefuryl 25 g/ha.
Setting [11] is: Table 3, 21 DAA, L-glufosinate ammonium 150, quizalofop-p-tefuryl 25 g/ha.
Where [12] appears, read: Table 3, 28 DAA, L-glufosinate ammonium 150, quizalofop-p-tefuryl 25 g/ha.
[13] abbreviates: Table 3, 35 DAA, L-glufosinate ammonium 150, quizalofop-p-tefuryl 25 g/ha.
[14] abbreviates: Table 4, 7 DAA, L-glufosinate ammonium 150, haloxyfop 50 g ai/ha.
Where [15] appears, read: Table 5, 21 DAA, L-glufosinate ammonium 150, quizalofop-ethyl 25 g ai/ha.
The mark [16] stands for this setting: Table 9, 3 DAA, L-glufosinate ammonium 150, quizalofop-ethyl 25 g/ha.
The mark [17] stands for this setting: Table 9, 28 DAA, L-glufosinate ammonium 150, quizalofop-ethyl 25 g/ha.
The mark [18] stands for this setting: Table 9, 35 DAA, L-glufosinate ammonium 150, quizalofop-ethyl 25 g/ha.
Setting [19] is: Table 10, 3 DAA, L-glufosinate ammonium 150, quizalofop-p-tefuryl 25 g/h.
The mark [20] stands for this setting: Table 10, 28 DAA, L-glufosinate ammonium 150, quizalofop-p-tefuryl 25 g/h.
[21] abbreviates: Table 10, 35 DAA, L-glufosinate ammonium 150, quizalofop-p-tefuryl 25 g/h.

Turning to `CP(=O)(O)CCC(N)C(=O)O` (racemic) [glufosinate, DL-homoalanin-4-yl(methyl)phosphinic acid], the “control of weed species” value in test [1] is listed as “either not combated, or only weakly combated”.
For the compound `CP(=O)(O)CC[C@H](N)C(=O)O.N` [L-glufosinate ammonium, ammonium (2S)-2-amino-4-(methylphosphinato)butyric acid], the Control % in test [2] (setting [6]) is reported as 50%; in test [2] (setting [7]), 79.3%; in test [2] (setting [8]) it was 60%; in test [2] (setting [9]), 55%; in test [2] (setting [10]) it was 75%; in test [2] (setting [11]), 70%. The Control % is reported as 60% in test [2] (setting [12]); 55% in test [2] (setting [13]); 25% in test [3] (21 DAA); 20% in test [3] (28 DAA); 18% in test [3] (35 DAA); 31.7% in test [4] (7 DAA). The Control % in test [4] (14 DAA) was determined as 81.7%; in test [4] (21 DAA), 83.3%; in test [4] (28 DAA), 83.3%; in test [4] (35 DAA) it was 83.3%; in test [5] (setting [16]) it was 50%; in test [5] (setting [17]) it was 40%. Also, the Control % in test [5] (setting [18]) is 40%; in test [5] (setting [19]), 50%; in test [5] (setting [20]), 60%; in test [5] (setting [21]) it was 55%. Further, the “% control” value in test [3] (setting [14]) was determined as 50.7%; in test [3] (setting [15]), 35%; in test [5] (3 DAA) it was 15%; in test [5] (7 DAA), 53.3%; in test [5] (14 DAA), 71%; in test [5] (21 DAA) it was 66.7%. Further, the “% control” value in test [5] (28 DAA) was 56.7%; in test [5] (35 DAA), 41.7%.
Regarding `CC(Oc1ccc(Oc2ncc(C(F)(F)F)cc2Cl)cc1)C(=O)O` (stereo not shown) [Haloxyfop, haloxyfop], the Control % in test [2] (setting [6]) is 26.7%; in test [2] (setting [7]), 75.3%; in test [4] (7 DAA), 8%; in test [4] (14 DAA), 8.7%; in test [4] (21 DAA), 10%; in test [4] (28 DAA), 31%. The Control % in test [4] (35 DAA) was 9.3%. Further, the “% control” value in test [3] (setting [14]) worked out at 25%; in test [5] (3 DAA), 5%; in test [5] (7 DAA) it was 13.3%; in test [5] (14 DAA), 15%; in test [5] (21 DAA), 12.3%; in test [5] (28 DAA), 12.3%. Besides, the “% control” value in test [5] (35 DAA) is given as 12.3%.
In the case of `CCOC(=O)C(C)Oc1ccc(Oc2cnc3cc(Cl)ccc3n2)cc1` (stereo not shown) [quizalofop-ethyl], the Control % in test [2] (setting [8]) was 35%; in test [2] (setting [9]), 30%; in test [5] (setting [16]) it was 0%; in test [5] (setting [17]) it was 0%; in test [5] (setting [18]) it was 0%. Moreover, in test [3] (setting [15]), the “% control” value is listed as 95%.
For the compound `C[C@@H](Oc1ccc(Oc2cnc3cc(Cl)ccc3n2)cc1)C(=O)OCC1CCCO1` (stereo partly shown) [quizalofop-p-tefuryl], the Control % came out at 20% in test [2] (setting [10]); 10% in test [2] (setting [11]); 5% in test [2] (setting [12]); 5% in test [2] (setting [13]); 10% in test [3] (21 DAA); 5% in test [3] (28 DAA). Moreover, the Control % in test [3] (35 DAA) stood at 5%; in test [5] (setting [19]), 0%; in test [5] (setting [20]), 0%; in test [5] (setting [21]) it was 0%.
